For 37 compounds, inhibition results are on record in US9890117B2, “Benzamide compounds and related methods of use” (Northwestern University, priority 2012, dated 2018).

Counter-ions that a name gives are not always drawn.

As a reminder, the inhibition is the relative decrease from the control value, in per cent. The low end stands for a weak effect, the high end for a strong effect.

The test has as its target T1, SIRT2 (Homo sapiens, UniProt Q8IXJ6).
T1 construct: recombinant active enzymes SIRT1, SIRT2, and the catalytically active fragment of SIRT3
T1 sequence (Q8IXJ6 1-389): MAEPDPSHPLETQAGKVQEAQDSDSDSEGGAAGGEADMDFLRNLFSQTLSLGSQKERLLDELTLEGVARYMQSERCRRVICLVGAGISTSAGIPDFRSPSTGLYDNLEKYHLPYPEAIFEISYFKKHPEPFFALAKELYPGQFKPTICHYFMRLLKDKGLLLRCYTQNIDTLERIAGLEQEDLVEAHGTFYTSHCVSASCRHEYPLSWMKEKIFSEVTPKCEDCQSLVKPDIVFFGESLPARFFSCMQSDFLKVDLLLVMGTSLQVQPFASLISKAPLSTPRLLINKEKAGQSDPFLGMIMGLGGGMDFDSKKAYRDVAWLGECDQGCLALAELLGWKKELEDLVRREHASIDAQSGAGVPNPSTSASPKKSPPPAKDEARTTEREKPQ
Nature of the test: Fluor-de-Lys biochemical sirtuin deacetylation assay, SIRT2. To be noted: 10 μM.
In turn, `CC(Oc1cccc(C(=O)Nc2ccc(C#N)cc2)c1)c1ccc(C2(C)COC2)cc1` (stereo not shown) [Compound 216Aj, N-(4-cyanophenyl)-3-(1-(4-(3-methyloxetan-3-yl)phenyl)ethoxy)benzamide] had an inhibition at 10 µM of 43%.

As to `CC(=O)c1ccc([C@@H](C)Oc2cccc(C(=O)Nc3ccc(C#N)cc3)c2)cc1` [Compound 216Ak, (R)-3-(1-(4-acetylphenyl)ethoxy)-N-(4-cyanophenyl)benzamide], at 10 µM the inhibition was 98%.

Compound `CC(=O)c1ccc([C@H](C)Oc2cccc(C(=O)Nc3ccc(C#N)cc3)c2)cc1` [Compound 216Al, (S)-3-(1-(4-acetylphenyl)ethoxy)-N-(4-cyanophenyl)benzamide] displayed an inhibition at 10 µM of 60%.

Take `CC(O)c1ccc([C@@H](C)Oc2cccc(C(=O)Nc3ccc(C#N)cc3)c2)cc1` (stereo partly drawn) [Compound 216Am, N-(4-cyanophenyl)-3-((1R)-1-(4-(1-hydroxyethyl)phenyl)ethoxy)benzamide]: the inhibition at 10 µM was 21%.

Regarding `CC(=O)c1ccc([C@@H](C)Oc2cncc(C(=O)Nc3ccc(C#N)cc3)c2)cc1` [Compound 216An, (R)-5-(1-(4-acetylphenyl)ethoxy)-N-(4-cyanophenyl)nicotinamide], at 10 µM the inhibition was 95%.

As to `CCC(CC)Oc1cccc(C(=O)Nc2ccc(C#N)cc2)c1` [Compound 216Ao, N-(4-cyanophenyl)-3-(pentan-3-yloxy)benzamide], the inhibition at 10 µM came out at 37%.

In turn, `CC(=O)c1ccc(C(Oc2cccc(C(=O)Nc3ccc(C#N)cc3)c2)C(C)C)cc1` (stereo not shown) [Compound 216Ap, 3-(1-(4-acetylphenyl)-2-methylpropoxy)-N-(4-cyanophenyl)benzamide] returned an inhibition at 10 µM of 44%.

With `CC(O)c1ccc([C@@H](C)Oc2cncc(C(=O)Nc3ccc(C#N)cc3)c2)cc1` (stereo partly drawn) [Compound 216Aq, N-(4-cyanophenyl)-5-((1R)-1-(4-(1-hydroxyethyl)phenyl)ethoxy)nicotinamide], 10 µM produced 0% inhibition.

For the compound `CC(=O)c1ccc(COc2cccc(C(=O)Nc3ccc(C#N)cc3)c2)cc1` [Compound 216Ar, 3-((4-acetylbenzyl)oxy)-N-(4-cyanophenyl)benzamide], the inhibition at 10 µM came to 27%.

Compound `CC(=O)c1ccc(NC(=O)c2cccc(O[C@H](C)c3ccc(C(C)=O)cc3)c2)cc1` [Compound 216As, (R)—N-(4-acetylphenyl)-3-(1-(4-acetylphenyl)ethoxy)benzamide] had an inhibition at 10 µM of 97%.

`CC(=O)c1ccc(C(C)(C)Oc2cccc(C(=O)Nc3ccc(Br)cc3)c2)cc1` [Compound 216At, 3-((2-(4-acetylphenyl)propan-2-yl)oxy)-N-(4-bromophenyl)benzamide] displayed an inhibition at 10 µM of 34%.

Regarding `CC(=O)c1ccc(C(C)(C)Oc2cccc(C(=O)Nc3ccc(C(F)(F)F)cc3)c2)cc1` [Compound 216Au, 3-((2-(4-acetylphenyl)propan-2-yl)oxy)-N-(4-(trifluoromethyl)phenyl)benzamide], at 10 µM the inhibition was 27%.

As for `CC(=O)c1ccc(C(C)Oc2cccc(C(=O)Nc3ccc(Cl)cc3)c2)cc1` (stereo not shown) [Compound 216Av, 3-(1-(4-acetylphenyl)ethoxy)-N-(4-chlorophenyl)benzamide], the inhibition at 10 µM worked out at 89%.

With `CC(=O)c1ccc(C(C)Oc2cccc(C(=O)Nc3ccc(F)cc3)c2)cc1` (stereo not shown) [Compound 216Aw, 3-(1-(4-acetylphenyl)ethoxy)-N-(4-fluorophenyl)benzamide], testing at 10 µM gave an inhibition of 62%.

Compound `COc1ccc(NC(=O)c2cccc(OC(C)c3ccc(C(C)=O)cc3)c2)cc1` (stereo not shown) [Compound 216Ax, 3-(1-(4-acetylphenyl)ethoxy)-N-(4-methoxyphenyl)benzamide] displayed an inhibition at 10 µM of 56%.

On to `CC(=O)c1ccc(NC(=O)c2cccc(OC(C)c3ccc(C(C)=O)cc3)c2)cc1` (stereo not shown) [Compound 216Ay, N-(4-acetylphenyl)-3-(1-(4-acetylphenyl)ethoxy)benzamide], for which the inhibition at 10 µM was found to be 94%.

The compound `CC(=O)c1ccc(C(C)Oc2cccc(C(=O)Nc3ccc(CC#N)cc3)c2)cc1` (stereo not shown) [Compound 216Az, 3-(1-(4-acetylphenyl)ethoxy)-N-(4-(cyanomethyl)phenyl)benzamide] returned an inhibition at 10 µM of 58%.

With `CC(=O)c1ccc(C(C)Oc2cccc(C(=O)Nc3ccc(Br)cc3)c2)cc1` (stereo not shown) [Compound 216Ba, 3-(1-(4-acetylphenyl)ethoxy)-N-(4-bromophenyl)benzamide], the inhibition at 10 µM stood at 85%.

As for `CC(=O)c1ccc(C(C)Oc2cccc(C(=O)Nc3ccc(S(C)(=O)=O)cc3)c2)cc1` (stereo not shown) [Compound 216Bb, 3-(1-(4-acetylphenyl)ethoxy)-N-(4-(methylsulfonyl)phenyl)benzamide], the inhibition at 10 µM stood at 70%.

`CC(=O)c1ccc(C(C)Oc2cccc(C(=O)Nc3ccc(C(F)(F)F)cc3)c2)cc1` (stereo not shown) [Compound 216Bc, 3-(1-(4-acetylphenyl)ethoxy)-N-(4-(trifluoromethyl)phenyl)benzamide] came in with an inhibition at 10 µM of 77%.

In the case of `C[C@@H](Oc1cccc(C(=O)Nc2ccc(C#N)cc2)c1)c1ccc(F)cc1` [Compound 216l, (R)—N-(4-cyanophenyl)-3-(1-(4-fluorophenyl)ethoxy)benzamide], the inhibition at 10 µM came to 88%.

Compound `C[C@H](Oc1cccc(C(=O)Nc2ccc(C#N)cc2)c1)c1ccc(F)cc1` [Compound 216o, (S)—N-(4-cyanophenyl)-3-(1-(4-fluorophenyl)ethoxy)benzamide] yielded an inhibition at 10 µM of 54%.

Consider `CC(C)(Oc1cccc(C(=O)Nc2ccc(C#N)cc2)c1)c1ccc(F)cc1` [Compound 216p, N-(4-cyanophenyl)-3-((2-(4-fluorophenyl)propan-2-yl)oxy)benzamide], for which the inhibition at 10 µM is 55%.

On to `C=CCOc1cc(OCc2ccc(C#N)cc2)cc(C(=O)Nc2ccc(C#N)cc2)c1` [Compound 216v, 3-(allyloxy)-5-((4-cyanobenzyl)oxy)-N-(4-cyanophenyl)benzamide], for which the inhibition at 10 µM was found to be 11%.

As for `N#Cc1ccc(COc2cc(OC[C@@H](O)CO)cc(C(=O)Nc3ccc(C#N)cc3)c2)cc1` [Compound 216x, (S)-3-((4-cyanobenzyl)oxy)-N-(4-cyanophenyl)-5-(2,3-dihydroxypropoxy)benzamide], the inhibition at 10 µM is 25%.

Take `CCN(CC)CCOc1cc(OCc2ccc(C#N)cc2)cc(C(=O)Nc2ccc(C#N)cc2)c1` [Compound 216y, 3-((4-cyanobenzyl)oxy)-N-(4-cyanophenyl)-5-(2-(diethylamino)ethoxy)benzamide]: the inhibition at 10 µM is 19%.

In the case of `N#Cc1ccc(NC(=O)c2cccc(NCc3ccc(F)cc3)c2)nc1` [Compound 221b, N-(5-cyanopyridin-2-yl)-3-((4-fluorobenzyl)amino)benzamide], the inhibition at 10 µM came out at 28%.

`CN(Cc1ccc(C#N)cc1)Cc1cccc(C(=O)Nc2ccc(C#N)cc2)c1` [Compound 225a, 3-(((4-cyanobenzyl)(methyl)amino)methyl)-N-(4-cyanophenyl)benzamide] gave an inhibition at 10 µM of 63%.

In turn, `N#Cc1ccc(NC(=O)c2cccc(CN(Cc3ccc(F)c(F)c3)C3CC3)c2)cc1` [Compound 225d, N-(4-cyanophenyl)-3-((cyclopropyl(3,4-difluorobenzyl)amino)methyl)benzamide hydrochloride] showed an inhibition at 10 µM of 55%.

For the compound `N#Cc1ccc(NC(=O)c2cccc(CN(Cc3ccc(C(F)(F)F)cc3)C3CC3)c2)cc1` [Compound 225e, N-(4-cyanophenyl)-3-((cyclopropyl(4-(trifluoromethyl)benzyl)amino)methyl)-benzamide hydrochloride], 10 µM produced 49% inhibition.

In turn, `N#Cc1ccc(NC(=O)c2cccc(CN(Cc3cc(F)cc(F)c3)C3CC3)c2)cc1` [Compound 225f, N-(4-cyanophenyl)-3-((cyclopropyl(3,5-difluorobenzyl)amino)methyl)benzamide hydrochloride] came in with an inhibition at 10 µM of 64%.

As to `N#Cc1ccc(NC(=O)c2cccc(CN(Cc3ccc(C#N)nc3)C3CC3)c2)cc1` [Compound 225g, N-(4-cyanophenyl)-3-((((6-cyanopyridin-3-yl)methyl)(cyclopropyl)amino)-methyl)benzamide hydrochloride], testing at 10 µM gave an inhibition of 44%.

Take `CC(C)(C)N(Cc1ccc(C#N)cc1)Cc1cccc(C(=O)Nc2ccc(C#N)cc2)c1` [Compound 225h, 3-((tert-butyl(4-cyanobenzyl)amino)methyl)-N-(4-cyanophenyl)benzamide hydrochloride]: the inhibition at 10 µM was 28%.

In turn, `N#Cc1ccc(NC(=O)c2cccc(CN(Cc3ccc(Br)cc3)C3CC3)c2)cc1` [Compound 225l, 3-(((4-bromobenzyl)(cyclopropyl)amino)methyl)-N-(4-cyanophenyl)benzamide hydrochloride] registered an inhibition at 10 µM of 37%.

Consider `N#Cc1ccc(NC(=O)c2cccc3c2CCN(Cc2ccc(F)c(F)c2)C3)cc1` [Compound 225m, N-(4-cyanophenyl)-2-(3,4-difluorobenzyl)-1,2,3,4-tetrahydroisoquinoline-5-carboxamide hydrochloride], for which at 10 µM the inhibition was 65%.

In turn, `CN(C(=O)c1cncc(CN(Cc2ccc(F)c(F)c2)C2CC2)c1)c1ccc(C#N)cc1` [Compound 225n, N-(4-cyanophenyl)-5-((cyclopropyl(3,4-difluorobenzyl)amino)methyl)-N-methylnicotinamide hydrochloride] displayed an inhibition at 10 µM of 0%.

`N#Cc1ccc(CN(Cc2cncc(C(=O)Nc3ccc(Cl)cc3)c2)C2CC2)cc1` [Compound 225o, N-(4-chlorophenyl)-5-(((4-cyanobenzyl)(cyclopropyl)amino)methyl)nicotinamide hydrochloride] showed an inhibition at 10 µM of 8%.
